What all share (format): biochemical
The target in experiment [1] is T1, recombinant human PREP (Homo sapiens, UniProt P48147).
T1 construct: purchased R&D System
T1 sequence (P48147 1-710): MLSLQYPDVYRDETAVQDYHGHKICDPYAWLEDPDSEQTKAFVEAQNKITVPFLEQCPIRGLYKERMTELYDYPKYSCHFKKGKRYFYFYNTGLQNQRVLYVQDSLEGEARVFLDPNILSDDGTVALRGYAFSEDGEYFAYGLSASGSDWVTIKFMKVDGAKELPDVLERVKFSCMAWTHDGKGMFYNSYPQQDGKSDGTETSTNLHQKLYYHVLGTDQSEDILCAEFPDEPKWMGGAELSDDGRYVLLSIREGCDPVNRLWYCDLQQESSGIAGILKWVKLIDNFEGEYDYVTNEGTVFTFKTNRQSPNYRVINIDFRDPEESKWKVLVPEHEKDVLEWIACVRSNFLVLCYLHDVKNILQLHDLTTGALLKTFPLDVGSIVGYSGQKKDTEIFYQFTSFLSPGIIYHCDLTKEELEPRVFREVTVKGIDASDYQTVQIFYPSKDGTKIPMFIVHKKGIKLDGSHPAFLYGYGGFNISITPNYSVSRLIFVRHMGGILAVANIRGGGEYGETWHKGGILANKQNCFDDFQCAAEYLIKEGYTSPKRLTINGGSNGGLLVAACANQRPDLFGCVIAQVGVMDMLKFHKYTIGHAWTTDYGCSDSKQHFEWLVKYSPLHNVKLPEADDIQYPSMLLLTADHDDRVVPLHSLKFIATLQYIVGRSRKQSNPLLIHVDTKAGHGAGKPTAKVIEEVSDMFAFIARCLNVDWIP
As to the kind of experiment: PREP inhibition, fluorogenic substrate Z-Gly-Pro-AMC. As to conditions: Inhibitory Activity (IC50, nM) PREP, recombinant human PREP. Put shortly:
(§1)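 Enzyme per reaction: 50 ng DPP9, 20 ng DPP8, 10 ng each DPP7 and PREP. Compounds were serially diluted (8 points, up to 0.5% DMSO) and incubated at 25 °C.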

For experiment [2], the target named is T2, Recombinant human FAP (Homo sapiens, UniProt Q12884).
T2 construct: purchased R&D systems
T2 sequence (Q12884 1-760): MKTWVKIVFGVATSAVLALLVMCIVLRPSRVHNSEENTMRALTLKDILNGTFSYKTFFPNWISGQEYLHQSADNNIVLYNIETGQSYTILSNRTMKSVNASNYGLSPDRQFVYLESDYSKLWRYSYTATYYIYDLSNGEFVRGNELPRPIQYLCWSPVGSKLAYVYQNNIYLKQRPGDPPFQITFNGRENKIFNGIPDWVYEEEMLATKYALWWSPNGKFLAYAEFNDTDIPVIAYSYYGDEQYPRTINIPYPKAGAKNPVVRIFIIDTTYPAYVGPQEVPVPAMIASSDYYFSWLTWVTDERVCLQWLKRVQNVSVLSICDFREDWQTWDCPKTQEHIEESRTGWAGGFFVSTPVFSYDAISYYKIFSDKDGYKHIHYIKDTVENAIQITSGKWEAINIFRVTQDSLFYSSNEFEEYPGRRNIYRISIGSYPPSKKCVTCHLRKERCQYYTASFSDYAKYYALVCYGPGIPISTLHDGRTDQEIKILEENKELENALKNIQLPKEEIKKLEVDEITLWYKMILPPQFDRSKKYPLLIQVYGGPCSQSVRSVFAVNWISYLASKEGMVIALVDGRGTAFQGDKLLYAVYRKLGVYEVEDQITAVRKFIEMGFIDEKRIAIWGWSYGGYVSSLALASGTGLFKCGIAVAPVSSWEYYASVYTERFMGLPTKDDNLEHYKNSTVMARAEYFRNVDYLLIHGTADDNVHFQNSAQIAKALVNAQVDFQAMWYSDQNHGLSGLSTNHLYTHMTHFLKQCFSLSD
Description: FAP inhibition, fluorogenic substrate Z-Gly-Pro-AMC. As to conditions: recombinant human FAP, substrate Z-Gly-Pro-AMC. Put shortly:
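Recombinant human FAP, 10 ng per reaction, in 50 mM Tris pH 7.5 with 1 M NaCl and 1 mg/ml BSA at 25° C; substrate Z-Gly-Pro-AMC, ≤0.1% DMSO. AMC fluorescence read at ex 380/em 460 nm; % signal-rate decrease vs no-inhibitor control, 8-point curves fitted to a four-parameter logistic for IC50.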

In experiment [3] the target is T3, recombinant human DPP8 (Homo sapiens, UniProt Q6V1X1).
T3 construct: purchased PBS Bioscience
T3 sequence (Q6V1X1 whole entry): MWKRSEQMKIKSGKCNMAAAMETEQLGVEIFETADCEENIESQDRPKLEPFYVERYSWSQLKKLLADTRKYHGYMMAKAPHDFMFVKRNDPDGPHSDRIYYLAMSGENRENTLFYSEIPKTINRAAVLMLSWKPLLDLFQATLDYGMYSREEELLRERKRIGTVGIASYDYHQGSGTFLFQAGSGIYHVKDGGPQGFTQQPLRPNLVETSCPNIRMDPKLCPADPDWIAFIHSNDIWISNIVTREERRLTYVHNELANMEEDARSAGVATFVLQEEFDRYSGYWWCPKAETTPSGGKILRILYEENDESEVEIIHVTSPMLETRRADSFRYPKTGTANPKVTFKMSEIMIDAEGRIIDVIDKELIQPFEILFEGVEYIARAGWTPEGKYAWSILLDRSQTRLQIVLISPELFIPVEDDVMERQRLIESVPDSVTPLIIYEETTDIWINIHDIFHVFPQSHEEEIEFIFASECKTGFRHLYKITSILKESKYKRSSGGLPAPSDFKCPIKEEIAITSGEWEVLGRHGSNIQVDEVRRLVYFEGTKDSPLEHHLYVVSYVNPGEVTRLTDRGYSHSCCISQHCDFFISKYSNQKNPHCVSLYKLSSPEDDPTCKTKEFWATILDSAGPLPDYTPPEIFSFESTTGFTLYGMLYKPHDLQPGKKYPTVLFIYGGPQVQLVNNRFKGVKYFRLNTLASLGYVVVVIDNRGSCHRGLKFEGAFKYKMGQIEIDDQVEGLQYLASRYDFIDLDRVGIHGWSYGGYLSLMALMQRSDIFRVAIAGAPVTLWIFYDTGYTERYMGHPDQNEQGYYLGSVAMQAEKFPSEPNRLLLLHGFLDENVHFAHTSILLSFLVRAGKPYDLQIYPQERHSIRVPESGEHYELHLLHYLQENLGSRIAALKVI
As to the kind of experiment: DPP8 inhibition, fluorogenic substrate Z-Ala-Pro-AMC. As to conditions: recombinant human DPP8. Summed up: as §1

Experiment [4] has as its target DPP4 (Homo sapiens, UniProt P27487). As to the kind of experiment: DPP4 inhibition, fluorogenic substrate H-Gly-Pro-AMC. Also noted: purchased R&D Systems. As to conditions: recombinant human DPP4.
Experiment [5] deals with T4, recombinant human DPP7 (Homo sapiens, UniProt Q9UHL4).
T4 construct: purchased R&D Systems
As to the kind of experiment: DPP7 inhibition, fluorogenic substrate Lys-Pro-AMC. As to conditions: recombinant human DPP7. Put shortly:
as §1

In experiment [6] the target is T5, recombinant human DPP9 (Homo sapiens, UniProt Q86TI2).
T5 construct: purchased R&D Systems
T5 sequence (Q86TI2 whole entry): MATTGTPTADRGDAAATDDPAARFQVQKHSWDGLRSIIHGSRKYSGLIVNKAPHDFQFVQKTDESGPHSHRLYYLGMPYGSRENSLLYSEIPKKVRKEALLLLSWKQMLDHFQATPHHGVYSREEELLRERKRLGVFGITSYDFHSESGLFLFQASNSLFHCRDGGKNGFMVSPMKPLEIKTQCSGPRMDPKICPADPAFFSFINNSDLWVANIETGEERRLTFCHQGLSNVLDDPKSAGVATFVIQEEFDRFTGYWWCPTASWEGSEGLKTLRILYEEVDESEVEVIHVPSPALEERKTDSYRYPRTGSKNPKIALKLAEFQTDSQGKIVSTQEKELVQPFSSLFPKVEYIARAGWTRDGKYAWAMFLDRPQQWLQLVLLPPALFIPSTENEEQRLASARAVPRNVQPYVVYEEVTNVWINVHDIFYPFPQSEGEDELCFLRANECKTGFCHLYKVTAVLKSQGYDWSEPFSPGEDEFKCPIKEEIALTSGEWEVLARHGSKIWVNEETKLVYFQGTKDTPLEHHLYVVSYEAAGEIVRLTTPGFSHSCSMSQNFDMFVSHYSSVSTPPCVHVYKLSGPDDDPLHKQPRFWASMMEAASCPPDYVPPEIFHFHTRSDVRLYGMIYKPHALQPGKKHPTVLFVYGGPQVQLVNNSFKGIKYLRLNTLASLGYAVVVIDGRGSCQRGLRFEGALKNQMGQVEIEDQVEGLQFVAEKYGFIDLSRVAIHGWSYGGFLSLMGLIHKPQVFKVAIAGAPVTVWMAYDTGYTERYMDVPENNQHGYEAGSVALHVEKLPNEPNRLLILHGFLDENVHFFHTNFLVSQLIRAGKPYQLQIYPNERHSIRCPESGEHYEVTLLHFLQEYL
Description: DPP9 inhibition, fluorogenic substrate H-Gly-Pro-AMC. As to conditions: recombinant human DPP9. Put shortly:
as §1

Sequence of DPP4 (P27487 whole entry): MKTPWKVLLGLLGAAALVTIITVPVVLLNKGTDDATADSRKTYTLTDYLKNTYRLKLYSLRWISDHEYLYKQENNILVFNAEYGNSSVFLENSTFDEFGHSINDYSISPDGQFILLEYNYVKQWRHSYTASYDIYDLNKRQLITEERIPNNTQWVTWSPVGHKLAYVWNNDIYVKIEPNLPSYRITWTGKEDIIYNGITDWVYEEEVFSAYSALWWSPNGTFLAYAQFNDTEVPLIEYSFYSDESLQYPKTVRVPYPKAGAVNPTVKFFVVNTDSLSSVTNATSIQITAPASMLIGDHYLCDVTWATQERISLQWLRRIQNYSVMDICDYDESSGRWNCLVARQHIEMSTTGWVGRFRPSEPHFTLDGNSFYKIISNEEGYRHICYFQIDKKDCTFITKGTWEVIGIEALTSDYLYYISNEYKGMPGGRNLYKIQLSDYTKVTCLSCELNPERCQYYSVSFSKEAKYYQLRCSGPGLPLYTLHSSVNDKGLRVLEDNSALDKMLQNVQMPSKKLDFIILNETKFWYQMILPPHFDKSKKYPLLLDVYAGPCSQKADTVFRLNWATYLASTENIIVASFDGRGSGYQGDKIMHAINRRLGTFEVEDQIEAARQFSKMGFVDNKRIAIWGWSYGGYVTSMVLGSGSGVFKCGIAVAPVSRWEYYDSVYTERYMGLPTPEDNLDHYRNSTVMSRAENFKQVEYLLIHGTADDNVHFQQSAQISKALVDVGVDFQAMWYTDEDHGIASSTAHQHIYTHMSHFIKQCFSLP

Take `COc1ccc2nccc(O[C@H]3CCN(CC(=O)N4C[C@@H](F)C[C@H]4C#N)C3)c2c1` [Example 299, (2S,4S)-4-fluoro-1-[2-[(3S)-3-[(6-methoxy-4-quinolyl)oxy]pyrrolidin-1-yl]acetyl]pyrrolidine-2-carbonitrile]: the 50% inhibitory concentration (IC50) in experiment [1] is 1410 nM; in experiment [2], 0.0017 µM; in experiment [3], 13.1 µM; in experiment [4], more than 10 µM; in experiment [5] it was 9.84 µM; in experiment [6], 8.19 µM.
In the case of `COc1cc2nccc(O[C@H]3CCN(CC(=O)N4C[C@@H](F)C[C@H]4C#N)C3)c2cc1OC` [Example 300, (2S,4S)-4-fluoro-1-[2-[(3S)-3-[(6,7-dimethoxy-4-quinolyl)oxy]pyrrolidin-1-yl]acetyl]pyrrolidine-2-carbonitrile], the IC50 is 4890 nM in experiment [1]; 0.0019 µM in experiment [2]; 17.8 µM in experiment [3]; more than 10 µM in experiment [4]; 2.93 µM in experiment [5]; 12.1 µM in experiment [6].
As to `N#C[C@@H]1CCCN1C(=O)CN1CCC(NC(=O)c2cccc3cccnc23)CC1` [Example 301, N-[1-[2-oxo-2-[(2S)-2-cyanopyrrolidin-1-yl]ethyl]-4-piperidyl]quinoline-8-carboxamide], the IC50 in experiment [1] is 36000 nM; in experiment [2], 0.0695 µM; in experiment [3] it was more than 100 µM; in experiment [4], 8.13 µM; in experiment [5], 1.56 µM; in experiment [6], more than 100 µM.
Turning to `CN(c1ccc2ncccc2c1)C1CCN(CC(=O)N2CCC[C@H]2C#N)CC1` [Example 310, (2S)-1-[2-[4-[methyl(6-quinolyl)amino]-1-piperidyl]acetyl]pyrrolidine-2-carbonitrile], the IC50 in experiment [1] is 740 nM; in experiment [2] it was 0.0053 µM; in experiment [3] it was more than 100 µM; in experiment [4] it was more than 10 µM; in experiment [5], 4.33 µM; in experiment [6], 66.4 µM.
Consider `CN(c1ccc2cccnc2c1)C1CCN(CC(=O)N2CCC[C@H]2C#N)CC1` [Example 311, (2S)-1-[2-[4-[methyl(7-quinolyl)amino]-1-piperidyl]acetyl]pyrrolidine-2-carbonitrile], for which the half-maximal inhibitory concentration (IC50) in experiment [1] was 4350 nM; in experiment [2] it was 0.014 µM; in experiment [3], more than 100 µM; in experiment [4] it was more than 10 µM; in experiment [5], 2.49 µM; in experiment [6], 96.9 µM.
Regarding `CN(c1cccc2cnccc12)C1CCN(CC(=O)N2CCC[C@H]2C#N)CC1` [Example 313, (2S)-1-[2-[4-[5-isoquinolyl(methyl)amino]-1-piperidyl]acetyl]pyrrolidine-2-carbonitrile], the IC50 in experiment [1] is 9360 nM; in experiment [2], 0.0739 µM; in experiment [3] it was more than 100 µM; in experiment [4], more than 10 µM; in experiment [5], more than 100 µM; in experiment [6], 13.7 µM.
With `CN(c1ccc2cnccc2c1)C1CCN(CC(=O)N2CCC[C@H]2C#N)CC1` [Example 314, (2S)-1-(2-(4-(isoquinolin-6-yl(methyl)amino)piperidin-1-yl)acetyl)pyrrolidine-2-carbonitrile], the IC50 in experiment [1] is 531 nM; in experiment [2] it was 0.0087 µM; in experiment [3], more than 100 µM; in experiment [4], more than 10 µM; in experiment [5], 2.47 µM; in experiment [6] it was 34.9 µM.
As for `CN(c1ccc2ncccc2c1)C1CCN(CC(=O)N2C[C@@H](F)C[C@H]2C#N)CC1` [Example 315, (2S,4S)-4-fluoro-1-[2-[4-[methyl(6-quinolyl)amino]-1-piperidyl]acetyl]pyrrolidine-2-carbonitrile], the 50% inhibitory concentration (IC50) in experiment [1] is 134 nM; in experiment [2], 0.0017 µM; in experiment [3] it was more than 10 µM; in experiment [4], 9.15 µM; in experiment [5] it was 1.05 µM; in experiment [6], 5.77 µM.
`CN(c1cnc2ccccc2c1)C1CCN(CC(=O)N2C[C@@H](F)C[C@H]2C#N)CC1` [Example 316, (2S,4S)-4-fluoro-1-[2-[4-[methyl(3-quinolyl)amino]-1-piperidyl]acetyl]pyrrolidine-2-carbonitrile]: the IC50 in experiment [1] is 500 nM; in experiment [2] it was 0.0031 µM; in experiment [3], more than 100 µM; in experiment [4], more than 10 µM; in experiment [5], 1.87 µM; in experiment [6], 8.2 µM.
Consider `CN(c1cc2ccccc2cn1)C1CCN(CC(=O)N2C[C@@H](F)C[C@H]2C#N)CC1` [Example 317, (2S,4S)-4-fluoro-1-[2-[4-[3-isoquinolyl(methyl)amino]-1-piperidyl]acetyl]pyrrolidine-2-carbonitrile], for which the IC50 in experiment [1] is 299 nM; in experiment [2], 0.0027 µM; in experiment [3] it was more than 100 µM; in experiment [4] it was more than 10 µM; in experiment [5], 1.85 µM; in experiment [6], 7.07 µM.
On to `CN(c1ccc2ccncc2c1)C1CCN(CC(=O)N2C[C@@H](F)C[C@H]2C#N)CC1` [Example 319, (2S,4S)-4-fluoro-1-[2-[4-[7-isoquinolyl(methyl)amino]-1-piperidyl]acetyl]pyrrolidine-2-carbonitrile], for which the IC50 in experiment [1] was 503 nM; in experiment [2], 0.0018 µM; in experiment [3], 3.82 µM; in experiment [4], more than 10 µM; in experiment [5], 1.32 µM; in experiment [6] it was 5.04 µM.
For the compound `N#C[C@@H]1C[C@H](F)CN1C(=O)CN1CCC(Nc2cccc3sccc23)CC1` [Example 336, (2S,4S)-1-(2-(4-(benzo[b]thiophen-4-ylamino)piperidin-1-yl)acetyl)-4-fluoropyrrolidine-2-carbonitrile], the IC50 came to 8500 nM in experiment [1]; 0.0593 µM in experiment [2]; 11.5 µM in experiment [3]; 7.39 µM in experiment [4]; 1.19 µM in experiment [5]; 6.52 µM in experiment [6].
On to `N#C[C@@H]1C[C@H](F)CN1C(=O)CN1CCC(Nc2ccnc3ccc(F)cc23)CC1` [Example 337, (2S,4S)-4-fluoro-1-[2-[4-[(6-fluoro-4-quinolyl)amino]-1-piperidyl]acetyl]pyrrolidine-2-carbonitrile], for which the half-inhibitory concentration (IC50) in experiment [1] turned out to be 2540 nM; in experiment [2], 0.0078 µM; in experiment [3], 7.88 µM; in experiment [4], 8.18 µM; in experiment [5] it was 0.571 µM; in experiment [6], 2.29 µM.
Consider `N#C[C@@H]1C[C@H](F)CN1C(=O)CN1CCC(Nc2ccnc3ccc(Cl)cc23)CC1` [Example 338, (2S,4S)-1-[2-[4-[(6-chloro-4-quinolyl)amino]-1-piperidyl]acetyl]-4-fluoro-pyrrolidine-2-carbonitrile], for which the IC50 in experiment [1] amounted to 1450 nM; in experiment [2] it was 0.0065 µM; in experiment [3] it was 8.33 µM; in experiment [4] it was 6.89 µM; in experiment [5] it was 0.809 µM; in experiment [6], 2.94 µM.

These data come from US11655235B2, “Pyrrolidine and piperidine compounds” (YUHAN CORPORATION, priority 2019, dated 2023).
